Assay results as given in PubChem BioAssay AID1919008 (Molecular Pharmacology Branch, DTP, NCI, 2023).
Several values for one entry are separate records, joined by “and”; a condition that tells them apart may be missing. Identical values can stand only once.

System: DMS-114 complex spheroids with HUVEC/MSC, growth % test/control
Assay: Anticancer human tumor DMS-114 cell line growth inhibition [AhR];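 note: spheroids exposed to agents for 7 days before readout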;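 for viability, T/C: 100% = DMSO vehicle control wells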
Conditions: for viability, T/C: stronger effect = lower value
In short: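 Spheroids combined tumor cells with HUVEC endothelial cells and human MSCs as stroma. AhR antagonists were paired with standard or investigational drugs, each dosed in half-log steps down from near clinical Cmax, or from 10 microM where Cmax was unknown.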

[1] = curve of first compound, second compound 0.1 µM
[2] = curve of first compound, second compound 0.316 µM
[3] = curve of first compound, second compound 1 µM
[4] = curve of first compound, second compound 3.16 µM
[5] = curve of first compound, second compound 10 µM
[6] = second compound 0.1 µM, first compound 0.0316 µM
[7] = second compound 0.1 µM, first compound 0.1 µM
[8] = second compound 0.1 µM, first compound 0.316 µM
[9] = second compound 0.1 µM, first compound 1 µM
[10] = second compound 0.1 µM, first compound 3.16 µM
[11] = second compound 0.1 µM, first compound 10 µM
[12] = second compound 0.316 µM, first compound 0.0316 µM
[13] = second compound 0.316 µM, first compound 0.1 µM
[14] = second compound 0.316 µM, first compound 0.316 µM
[15] = second compound 0.316 µM, first compound 1 µM
[16] = second compound 0.316 µM, first compound 3.16 µM
[17] = second compound 0.316 µM, first compound 10 µM
[18] = second compound 1 µM, first compound 0.0316 µM
[19] = second compound 1 µM, first compound 0.1 µM
[20] = second compound 1 µM, first compound 0.316 µM
[21] = second compound 1 µM, first compound 1 µM
[22] = second compound 1 µM, first compound 3.16 µM
[23] = second compound 1 µM, first compound 10 µM
[24] = second compound 3.16 µM, first compound 0.0316 µM
[25] = second compound 3.16 µM, first compound 0.1 µM
[26] = second compound 3.16 µM, first compound 0.316 µM
[27] = second compound 3.16 µM, first compound 1 µM
[28] = second compound 3.16 µM, first compound 3.16 µM
[29] = second compound 3.16 µM, first compound 10 µM
[30] = second compound 10 µM, first compound 0.0316 µM
[31] = second compound 10 µM, first compound 0.1 µM
[32] = second compound 10 µM, first compound 0.316 µM
[33] = second compound 10 µM, first compound 1 µM
[34] = second compound 10 µM, first compound 3.16 µM
[35] = second compound 10 µM, first compound 10 µM

Nc1ccccc1NC(=O)c1ccc(CNC(=O)OCc2cccnc2)cc1
viability, T/C (compound 0.0316 µM): 89.7% and 96.8% and 108% | viability, T/C (compound 0.1 µM): 85% and 94.1% and 92.8% | viability, T/C (compound 0.316 µM): 68% and 90.9% and 67.3% | viability, T/C (compound 1 µM): 37.8% and 74.1% and 40.4% | viability, T/C (compound 3.16 µM): 15.6% and 44% and 22.9% | viability, T/C (compound 10 µM): 8.33% and 24.4% and 14.5% | IC50 (curve of compound): 627 nM and 2520 nM and 665 nM

Nc1ncn(C2CC(O)C(CO)S2)c(=O)n1 (stereo unspecified)
viability, T/C (compound 0.000949 µM): 97.3% and 101% and 110% | viability, T/C (compound 0.003 µM): 108% and 102% and 116% | viability, T/C (compound 0.00949 µM): 112% and 104% and 102% | viability, T/C (compound 0.03 µM): 88.5% and 101% and 88.9% | viability, T/C (compound 0.0949 µM): 60.1% and 107% and 84.8% | viability, T/C (compound 0.3 µM): 46.1% and 86.9% and 52.9% | IC50 (curve of compound): 222 nM and > 300 nM

CC1(C)CCC(CN2CCN(c3ccc(C(=O)NS(=O)(=O)c4ccc(NCC5CCOCC5)c([N+](=O)[O-])c4)c(Oc4cnc5[nH]ccc5c4)c3)CC2)=C(c2ccc(Cl)cc2)C1 + Cc1cncc(-c2nc(NCCc3c[nH]c4ccccc34)c3ncn(C(C)C)c3n2)c1
IC50 [1]: > 10000 nM | IC50 [2]: > 10000 nM | IC50 [3]: > 10000 nM | IC50 [4]: > 10000 nM | IC50 [5]: 6390 nM | viability, T/C [6]: 91.9% | viability, T/C [7]: 92.7% | viability, T/C [8]: 101% | viability, T/C [9]: 106% | viability, T/C [10]: 94.9% | viability, T/C [11]: 110% | viability, T/C [12]: 91.5% | viability, T/C [13]: 95.7% | viability, T/C [14]: 95.5% | viability, T/C [15]: 107% | viability, T/C [16]: 102% | viability, T/C [17]: 98.9% | viability, T/C [18]: 102% | viability, T/C [19]: 102% | viability, T/C [20]: 108% | viability, T/C [21]: 97.6% | viability, T/C [22]: 110% | viability, T/C [23]: 101% | viability, T/C [24]: 96.8% | viability, T/C [25]: 86.8% | viability, T/C [26]: 93.8% | viability, T/C [27]: 103% | viability, T/C [28]: 96.3% | viability, T/C [29]: 84.7% | viability, T/C [30]: 50.9% | viability, T/C [31]: 60.2% | viability, T/C [32]: 58.3% | viability, T/C [33]: 47.8% | viability, T/C [34]: 45% | viability, T/C [35]: 53.7%

NS(=O)(=O)OCC1CC(n2ccc3c(NC4CCc5ccccc54)ncnc32)CC1O (stereo unspecified) + CC(CO)NC(=O)c1cc(-c2ccc(Cl)cc2)nn(-c2cnn(C)c2)c1=O
IC50 [1]: < 31.6 nM | IC50 [2]: 38.1 nM | IC50 [3]: < 31.6 nM | IC50 [4]: 33.3 nM | IC50 [5]: < 31.6 nM | viability, T/C [6]: 39.8% | viability, T/C [7]: 35.6% | viability, T/C [8]: 16% | viability, T/C [9]: 11% | viability, T/C [10]: 7.57% | viability, T/C [11]: 6.46% | viability, T/C [12]: 53.4% | viability, T/C [13]: 32.2% | viability, T/C [14]: 17.7% | viability, T/C [15]: 9.64% | viability, T/C [16]: 8.09% | viability, T/C [17]: 6.7% | viability, T/C [18]: 47.9% | viability, T/C [19]: 35.5% | viability, T/C [20]: 16.3% | viability, T/C [21]: 12.2% | viability, T/C [22]: 7.56% | viability, T/C [23]: 7.46% | viability, T/C [24]: 50.6% | viability, T/C [25]: 34.8% | viability, T/C [26]: 17.8% | viability, T/C [27]: 11.7% | viability, T/C [28]: 8.81% | viability, T/C [29]: 6.82% | viability, T/C [30]: 49.4% | viability, T/C [31]: 40% | viability, T/C [32]: 18.3% | viability, T/C [33]: 10.8% | viability, T/C [34]: 8.39% | viability, T/C [35]: 8.61%

CC1(C)CCC(CN2CCN(c3ccc(C(=O)NS(=O)(=O)c4ccc(NCC5CCOCC5)c([N+](=O)[O-])c4)c(Oc4cnc5[nH]ccc5c4)c3)CC2)=C(c2ccc(Cl)cc2)C1
viability, T/C (compound 0.0316 µM): 101% and 99.7% and 98.9% | viability, T/C (compound 0.1 µM): 102% and 97.2% and 99% | viability, T/C (compound 0.316 µM): 92.6% and 103% and 110% | viability, T/C (compound 1 µM): 98.6% and 108% and 117% | viability, T/C (compound 3.16 µM): 113% and 107% and 116% | viability, T/C (compound 10 µM): 107% and 105% and 61.2% | IC50 (curve of compound): > 10000 nM
